IC50 data for four molecules are collected here from BindingDB's records for patent US11365204 (Union therapeutics A/S, 2022).

Broadly, the IC50 is the concentration at which inhibition is half-maximal. A high value points to lower potency.

Chain of Tumor necrosis factor (P01375 whole entry): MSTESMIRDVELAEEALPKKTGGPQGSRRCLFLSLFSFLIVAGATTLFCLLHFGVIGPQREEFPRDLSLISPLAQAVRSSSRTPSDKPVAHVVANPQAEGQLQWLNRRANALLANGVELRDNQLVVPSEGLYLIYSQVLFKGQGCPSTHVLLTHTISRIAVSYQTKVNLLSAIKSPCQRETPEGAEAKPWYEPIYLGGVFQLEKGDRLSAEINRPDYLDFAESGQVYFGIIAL

The target in the assay is Tumor necrosis factor (Homo sapiens, UniProt P01375). The assay is described as follows: TNF-alpha RELEASE. The protocol:
Human peripheral blood mononuclear cells (PBMC) were isolated from fresh buffy coats by density centrifugation using lymphoprep tubes (Medinor). Frozen PBMC's were washed in serum free assay buffer (RPMI1640 with 25 mM HEPES, 1% pen/strep, […], 0.5% human serum albumin) and living cells counted. Lipopolysaccharide (1 microg/ml; SIGMA) was added to the cells which were then transferred to 384 well tissue culture plates (5×105 c/ml) containing titrated test compounds. The cells were incubated for 18 hours at 37° C. in serum free assay buffer and the level of TNFalpha in the supernatant was quantitated by AlphaLISA (PerkinElmer) by measuring fluorescence intensity at 615 nm.Results were expressed as IC50 values calculated from inhibition curves using as controls the secretion in LPS stimulated wells and the secretion in cells incubated with 10 microM of a PDE4 inhibitor reference compound.
For the molecule `CC(=O)N1CC[C@H](Nc2nc(N3CC(OC(=O)c4cnsc4)C3)nc3c2[S@+]([O-])CC3)C1` [US11365204, Example 72], the IC50 is under 100 nM.
Turning to `CC(=O)N1CC[C@H](Nc2nc(N3CC(OC(=O)c4cscn4)C3)nc3c2[S@+]([O-])CC3)C1` [US11365204, Example 73], the midpoint of inhibition, the IC50, lay at 300 nM.
In turn, `CC(=O)N1CC[C@H](Nc2nc(N3CC(OC(=O)C4CCOCC4)C3)nc3c2[S@+]([O-])CC3)C1` [US11365204, Example 74] had a half-inhibitory concentration (IC50) of 300 nM.
With `CC(=O)N1CCC(Nc2nc(N3CC(OC(=O)c4cscn4)C3)nc3c2[S+]([O-])CC3)CC1` (centres undefined) [US11365204, Example 76], the IC50 is over 500 nM.
